Results from ChEMBL document CHEMBL1275493, “Anti-human immunodeficiency virus type 1 activities of antimicrobial peptides derived from human and bovine cathelicidins” (Antimicrob Agents Chemother, 2008).
Peptide text beside a SMILES is read from it.

Key:
[1] = tested on: Human immunodeficiency virus 1; assay: Antiviral activity against Human immunodeficiency virus 1 3B infected in CEM-SS cells; assay type: functional, organism-based
CEM-SS = assay: Cytotoxicity against Human immunodeficiency virus 1 3B infected human CEM-SS cells; assay type: functional; details: read-out: TC50 (the source's name)
[2] = Therapeutic index, TC50 for Human immunodeficiency virus 1 3B infected human CEM-SS cells to EC50 for immunodeficiency virus 1 3B; assay type: cell-based; details: CEM-SS cells infected with HIV-1 3B, read-out: TI

Row | SMILES | EC50 [1] [µM] | CC50 (CEM-SS) [µM] | selectivity ratio [2]
1 | CC[C@H](C)[C@H](NC(=O)CN)C(=O)N[C@@H](CCCCN)C(=O)N[C@@H](CCC(=O)O)C(=O)N[C@@H](C(=O)N[C@@H](CCCCN)C(=O)N[C@@H](CCCNC(=N)N)C(=O)N[C@H](C(=O)N[C@H](C(=O)N[C@@H](CCC(N)=O)C(=O)N[C@@H](CCCNC(=N)N)C(=O)N[C@H](C(=O)N[C@@H](CCCCN)C(=O)N[C@@H](CC(=O)O)C(=O)N[C@@H](Cc1ccccc1)C(=O)N[C@@H](CC(C)C)C(=O)N[C@@H](CCCNC(=N)N)C(=O)N[C@@H](CC(N)=O)C(=O)N[C@@H](CC(C)C)C(=O)N[C@H](C(=O)O)C(C)C)[C@@H](C)CC)C(C)C)[C@@H](C)CC)c1ccccc1 | > 40.6 | 7.3 | –
2 | CC[C@H](C)[C@H](NC(=O)[C@H](CCCNC(=N)N)NC(=O)[C@H](CCCCN)NC(=O)[C@H](Cc1ccccc1)NC(=O)CN)C(=O)N[C@H](C(=O)N[C@@H](CCC(N)=O)C(=O)N[C@@H](CCCNC(=N)N)C(=O)N[C@@H](C(=O)N[C@@H](CCCCN)C(=O)N[C@@H](CC(=O)O)C(=O)N[C@@H](Cc1ccccc1)C(=O)N[C@H](CC(C)C)C(=O)N[C@@H](CCCNC(=N)N)C(=O)N[C@@H](CC(N)=O)C(=O)N[C@@H](CC(C)C)C(=O)N[C@H](C(=O)O)C(C)C)[C@@H](C)CC)C(C)C | > 47.5 | > 47.5 | –
3 | CC[C@H](C)[C@H](NC(=O)CN)C(=O)N[C@@H](CCCCN)C(=O)N[C@@H](CCC(=O)O)C(=O)N[C@@H](Cc1ccccc1)C(=O)N[C@@H](CCCCN)C(=O)N[C@@H](CCCNC(=N)N)C(=O)N[C@@H](CCC(=O)O)C(=O)N[C@@H](Cc1ccccc1)C(=O)N[C@@H](CCC(N)=O)C(=O)N[C@@H](CCCNC(=N)N)C(=O)N[C@H](C(=O)N[C@@H](CCCCN)C(=O)N[C@@H](CC(=O)O)C(=O)N[C@@H](Cc1ccccc1)C(=O)N[C@@H](CC(C)C)C(=O)N[C@@H](CCCNC(=N)N)C(=O)N[C@@H](CC(N)=O)C(=O)N[C@@H](CC(C)C)C(=O)N[C@H](C(=O)O)C(C)C)[C@@H](C)CC (H-GIKEFKREFQRIKDFLRNLV-OH) [listing 1 of 2 here] | – | 9.9 | –
4 | CC[C@H](C)[C@H](NC(=O)[C@H](CCCNC(=N)N)NC(=O)[C@H](CCC(N)=O)NC(=O)[C@@H](NC(=O)[C@@H](NC(=O)[C@H](CCCNC(=N)N)NC(=O)[C@@H](N)CCCCN)[C@@H](C)CC)C(C)C)C(=O)N[C@@H](CCCCN)C(=O)N[C@@H](CC(=O)O)C(=O)N[C@@H](Cc1ccccc1)C(=O)N[C@@H](CC(C)C)C(=O)N[C@@H](CCCNC(=N)N)C(=O)N[C@@H](CC(N)=O)C(=O)N[C@@H](CC(C)C)C(=O)N[C@H](C(=O)N1CCC[C@H]1C(=O)N[C@@H](CCCNC(=N)N)C(=O)N[C@H](C(=O)N[C@@H](CCC(=O)O)C(=O)N[C@@H](CO)C(=O)O)[C@@H](C)O)C(C)C (H-KRIVQRIKDFLRNLVPRTES-OH) | > 40.5 | > 40.5 | –
5 | CC[C@H](C)[C@H](NC(=O)CN)C(=O)N[C@@H](CCCCN)C(=O)N[C@@H](CCC(=O)O)C(=O)N[C@@H](Cc1c[nH]c2ccccc12)C(=O)N[C@@H](CCCCN)C(=O)N[C@@H](CCCNC(=N)N)C(=O)N[C@H](C(=O)N[C@H](C(=O)N[C@@H](CCC(N)=O)C(=O)N[C@@H](CCCNC(=N)N)C(=O)N[C@H](C(=O)N[C@@H](CCCCN)C(=O)N[C@@H](CC(=O)O)C(=O)N[C@@H](Cc1ccccc1)C(=O)N[C@@H](CC(C)C)C(=O)N[C@@H](CCCNC(=N)N)C(=O)N[C@@H](CC(N)=O)C(=O)N[C@@H](CC(C)C)C(=O)N[C@H](C(=O)O)C(C)C)[C@@H](C)CC)C(C)C)[C@@H](C)CC (H-GIKEWKRIVQRIKDFLRNLV-OH) [listing 1 of 2 here] | – | 23.6 | –
6 | CC[C@H](C)[C@H](NC(=O)[C@H](CCCNC(=N)N)NC(=O)[C@H](CCC(N)=O)NC(=O)[C@@H](NC(=O)[C@@H](NC(=O)[C@H](CCCNC(=N)N)NC(=O)[C@@H](N)CCCCN)[C@@H](C)CC)C(C)C)C(=O)N[C@@H](CCCCN)C(=O)N[C@@H](CC(=O)O)C(=O)N[C@@H](Cc1ccccc1)C(=O)N[C@@H](CC(C)C)C(=O)N[C@@H](CCCNC(=N)N)C(=O)O (H-KRIVQRIKDFLR-OH) | > 63.5 | > 63.5 | –
7 | CC[C@H](C)[C@H](NC(=O)CN)C(=O)N[C@@H](CCCCN)C(=O)N[C@@H](CCC(=O)O)C(=O)N[C@@H](Cc1c[nH]c2ccccc12)C(=O)N[C@@H](CCCCN)C(=O)N[C@@H](CCCNC(=N)N)C(=O)N[C@H](C(=O)N[C@H](C(=O)N[C@@H](CCC(N)=O)C(=O)N[C@@H](CCCNC(=N)N)C(=O)N[C@H](C(=O)N[C@@H](CCCCN)C(=O)N[C@@H](CC(=O)O)C(=O)N[C@@H](Cc1ccccc1)C(=O)N[C@@H](CC(C)C)C(=O)N[C@@H](CCCNC(=N)N)C(=O)N[C@@H](CC(N)=O)C(=O)N[C@@H](CC(C)C)C(=O)N[C@H](C(=O)O)C(C)C)[C@@H](C)CC)C(C)C)[C@@H](C)CC (H-GIKEWKRIVQRIKDFLRNLV-OH) [listing 2 of 2 here] | 7.4 | – | 3.2
8 | CC[C@H](C)[C@H](NC(=O)CN)C(=O)N[C@@H](CCCCN)C(=O)N[C@@H](CCC(=O)O)C(=O)N[C@@H](Cc1ccccc1)C(=O)N[C@@H](CCCCN)C(=O)N[C@@H](CCCNC(=N)N)C(=O)N[C@@H](CCC(=O)O)C(=O)N[C@@H](Cc1ccccc1)C(=O)N[C@@H](CCC(N)=O)C(=O)N[C@@H](CCCNC(=N)N)C(=O)N[C@H](C(=O)N[C@@H](CCCCN)C(=O)N[C@@H](CC(=O)O)C(=O)N[C@@H](Cc1ccccc1)C(=O)N[C@@H](CC(C)C)C(=O)N[C@@H](CCCNC(=N)N)C(=O)N[C@@H](CC(N)=O)C(=O)N[C@@H](CC(C)C)C(=O)N[C@H](C(=O)O)C(C)C)[C@@H](C)CC (H-GIKEFKREFQRIKDFLRNLV-OH) [listing 2 of 2 here] | 1.6 | – | 6.2
9 | CC(C)C[C@H](NC(=O)[C@H](CCCCN)NC(=O)[C@H](CCCCN)NC(=O)[C@H](Cc1ccccc1)NC(=O)[C@H](CCCCN)NC(=O)[C@H](CCCCN)NC(=O)[C@H](CCCNC(=N)N)NC(=O)[C@H](Cc1ccccc1)NC(=O)[C@H](CCCNC(=N)N)NC(=O)[C@H](CCCCN)NC(=O)[C@H](Cc1ccccc1)NC(=O)[C@H](CCCNC(=N)N)NC(=O)CN)C(=O)N[C@@H](Cc1ccccc1)C(=O)N[C@@H](CCCCN)C(=O)O (H-GRFKRFRKKFKKLFK-OH) | > 49.6 | > 49.6 | –
10 | CC[C@H](C)[C@H](NC(=O)[C@H](CCCNC(=N)N)NC(=O)[C@H](CCCCN)NC(=O)[C@H](Cc1ccccc1)NC(=O)CN)C(=O)N[C@H](C(=O)N[C@@H](CCC(N)=O)C(=O)N[C@@H](CCCNC(=N)N)C(=O)N[C@@H](C(=O)N[C@@H](CCCCN)C(=O)N[C@@H](CC(=O)O)C(=O)N[C@@H](Cc1ccccc1)C(=O)N[C@@H](CC(C)C)C(=O)N[C@@H](CCCNC(=N)N)C(=O)N[C@@H](CC(N)=O)C(=O)N[C@@H](CC(C)C)C(=O)N[C@H](C(=O)O)C(C)C)[C@@H](C)CC)C(C)C | > 47.5 | 22.7 | –
11 | CC[C@H](C)[C@H](NC(=O)CN)C(=O)N[C@@H](CCCCN)C(=O)N[C@@H](CCC(N)=O)C(=O)N[C@@H](Cc1ccccc1)C(=O)N[C@@H](CCCCN)C(=O)N[C@@H](CCCNC(=N)N)C(=O)N[C@H](C(=O)N[C@H](C(=O)N[C@@H](CCC(N)=O)C(=O)N[C@@H](CCCNC(=N)N)C(=O)N[C@H](C(=O)N[C@@H](CCCCN)C(=O)N[C@@H](CC(=O)O)C(=O)N[C@@H](Cc1ccccc1)C(=O)N[C@@H](CC(C)C)C(=O)N[C@@H](CCCNC(=N)N)C(=O)N[C@@H](CC(N)=O)C(=O)N[C@@H](CC(C)C)C(=O)N[C@H](C(=O)O)C(C)C)[C@@H](C)CC)C(C)C)[C@@H](C)CC (H-GIKQFKRIVQRIKDFLRNLV-OH) | – | 13.7 | –
12 | CC[C@H](C)[C@H](NC(=O)[C@H](CCCCN)NC(=O)[C@H](CCC(=O)O)NC(=O)[C@H](CCCCN)NC(=O)[C@H](CO)NC(=O)[C@H](CCCCN)NC(=O)[C@H](CCCNC(=N)N)NC(=O)[C@H](CC(C)C)NC(=O)[C@H](CC(C)C)NC(=O)[C@H](CC(=O)O)NC(=O)CNC(=O)[C@H](CC(C)C)NC(=O)[C@@H](N)CC(C)C)C(=O)NCC(=O)N[C@@H](CCCCN)C(=O)N[C@@H](CCC(=O)O)C(=O)N[C@@H](Cc1ccccc1)C(=O)N[C@@H](CCCCN)C(=O)N[C@@H](CCCNC(=N)N)C(=O)N[C@H](C(=O)N[C@H](C(=O)N[C@@H](CCC(N)=O)C(=O)N[C@@H](CCCNC(=N)N)C(=O)O)C(C)C)[C@@H](C)CC (H-LLGDLLRKSKEKIGKEFKRIVQR-OH) | > 35.4 | > 35.4 | –
13 | CC[C@H](C)[C@H](NC(=O)[C@H](CCCCN)NC(=O)[C@H](CCCCN)NC(=O)[C@H](Cc1ccccc1)NC(=O)[C@H](CC(C)C)NC(=O)[C@H](CCCCN)NC(=O)[C@H](CCCCN)NC(=O)[C@H](CC(C)C)NC(=O)[C@H](CCCCN)NC(=O)[C@H](CCCCN)NC(=O)[C@H](CCCNC(=N)N)NC(=O)[C@@H](NC(=O)[C@H](CCCNC(=N)N)NC(=O)[C@H](CCCCN)NC(=O)[C@H](Cc1ccccc1)NC(=O)[C@H](CCCNC(=N)N)NC(=O)CN)[C@@H](C)CC)C(=O)N[C@@H](CO)C(=O)O (H-GRFKRIRKKLKKLFKKIS-OH) [listing 1 of 2 here] | > 44 | – | –
14 | CC[C@H](C)[C@H](NC(=O)[C@H](CCCCN)NC(=O)[C@H](CC(=O)O)NC(=O)[C@H](Cc1ccccc1)NC(=O)[C@H](CC(C)C)NC(=O)[C@@H](N)CCCNC(=N)N)C(=O)N[C@@H](CCCNC(=N)N)C(=O)N[C@@H](CCC(N)=O)C(=O)N[C@H](C(=O)N[C@H](C(=O)N[C@@H](CCCNC(=N)N)C(=O)N[C@@H](CCCCN)C(=O)N[C@@H](Cc1ccccc1)C(=O)O)[C@@H](C)CC)C(C)C (H-RLFDKIRQVIRKF-OH) | > 58.1 | 33.7 | –
15 | CC[C@H](C)[C@H](NC(=O)[C@H](CCCCN)NC(=O)[C@H](CCCCN)NC(=O)[C@H](Cc1ccccc1)NC(=O)[C@H](CC(C)C)NC(=O)[C@H](CCCCN)NC(=O)[C@H](CCCCN)NC(=O)[C@H](CC(C)C)NC(=O)[C@H](CCCCN)NC(=O)[C@H](CCCCN)NC(=O)[C@H](CCCNC(=N)N)NC(=O)[C@@H](NC(=O)[C@H](CCCNC(=N)N)NC(=O)[C@H](CCCCN)NC(=O)[C@H](Cc1ccccc1)NC(=O)[C@H](CCCNC(=N)N)NC(=O)CN)[C@@H](C)CC)C(=O)N[C@@H](CO)C(=O)O (H-GRFKRIRKKLKKLFKKIS-OH) [listing 2 of 2 here] | – | 2.79 | –
